Patent publication US20250144088A1, “INHALABLE FORMULATION FOR USE IN THE TREATMENT OF BACTERIAL LUNG INFECTIONS” (priority 2022, published 2025)
Where two headings read alike, the source gives them in different places.

How the values were obtained:
[1] = p.o. 25 mg/kg, HP-β-CD solution, Irwin, 2016, male Balb/c mice, cited from earlier work
[2] = test system: J774 cells; test: High content analysis of drug-induced phospholipidosis (DIPL) and cytotoxicity in macrophage-like cells; format: cell-based; details: mouse, 48 h
From the text: FIG. 1: A macrophage-like cell line (J774 cells) were used to screen whether three different nanocarrier formulations differing in their lipid compositions (1: DOPC/Chol, 2: DMPC/DMPG or 3: pegylated DOPC/Chol) i) are cytotoxic to this cell type and protect the cells from BDQ-induced DIPL. A heat map was used to depict the number of cells with DIPL-induced abnormalities (first two left-hand columns) and cytotoxicity markers (columns on the right). Black fields indicate that <10% of the cells in the treatment groups were abnormal, whereas grey-to-white colored fields denote an increasing proportion of cells with abnormalities. The heatmap at the top depicts the positive control group for DIPL, which consisted of four known CADs (amiodarone, amytryptiline, azithromycin, and BDQ) administered to the cells in solution (no formulation). […] The numbers on the left-hand side of each heatmap denote the CAD dose (μM) and the total lipid concentration (μg/mL) added to each well. The values depicted the mean % abnormal cells from six replicate formulations tested in four different cell passage numbers.
High content analysis was initially used as a rapid screening tool to evaluate interactions between lipid-based nanocarrier (TargoSphere©) formulations applied as liquid dispersions and macrophage cells. […] Two of the formulations (DOPC/Chol and DMPG/DMPC) contained Fuc-C4-Chol as a C-type lectin receptor targeting ligand (+CLR). Four concentrations ranging from 15-700 μg/mL (total solid content) were tested. After an incubation time of 48 h three assays with different fluorescence markers were performed. […]
For high content analysis, images were documented using the Cytation™ 5 Cell Imaging Multi-Mode Reader (BioTek, Bad Friedrichshall, Germany) with a 40× objective in standard 2D imaging mode. For each well 6 pictures were analysed using the Gen5 software (BioTek, Bad Friedrichshall, Germany). […] For both dyes the fluorescence intensity values were measured. […] Area and size of the vacuoles were identified and measured based on negative staining. […]

[3] = mouse, in vivo, po, 30 mg/kg; cited from earlier work
[4] = In vivo pharmacokinetics, current example (i.v., i.n., p.o.), healthy Balb-c mice
Method: Values represent the mean of n=6 animals per time point.
After 0.5, 3, 24, 48, 72 and 96 hours, the animals were sacrificed and samples were taken from the blood plasma, lung tissues, lung epithelial fluid and cellular fraction of the lung epithelial fluid. […]

[5] = test system: Mycobacterium tuberculosis strains; details: cited from earlier work
[6] = Balb-c, mouse, in vivo, po, 25 mg/kg

SMILES: COc1nc2ccc(Br)cc2cc1[C@@H](c1ccccc1)[C@@](O)(CCN(C)C)c1cccc2ccccc12 [BDQ, bedaquiline]
- tmax ([1]; BDQ in lung tissue): 8 h
- Cmax ([1]; BDQ in plasma): 2900 ng/mL
- tmax ([1]; BDQ in plasma): 0.5 h
- cells exhibiting abnormal phospholipid accumulation [2]: ~100%
- tmax [3]: 24 h
- tmax ([4]; BDQ in plasma, p.o. 25 mg/kg, drug suspension, current example): 0.5 h
- Kp ([4]; Balb-c, mouse, in vivo): 62
- increase in lung exposure after intrapulmonary administration ([4]; Balb-c, mouse, in vivo): 3 fold
- Kp ([4]; Balb-c, mouse, in vivo, iv): 15
- Kp ([4]; Balb-c, mouse, in vivo, po): 11
- Tmax [4, 6]: 3 h
- tmax [4, 6]: 24 h

SMILES: CNCCC(O)(c1cccc2ccccc12)C(c1ccccc1)c1cc2cc(Br)ccc2nc1OC (stereo not drawn) [M2, N-desmethyl-BDQ]
- attenuated activity against Mycobacterium tuberculosis strains compared to BDQ [5]: 3- to 5 fold

SMILES: CCCCc1oc2ccccc2c1C(=O)c1cc(I)c(OCCN(CC)CC)c(I)c1 [amiodarone]
- cells exhibiting abnormal phospholipid accumulation [2]: ~100%

SMILES: CC[C@H]1OC(=O)[C@H](C)[C@@H](O[C@H]2C[C@@](C)(OC)[C@@H](O)[C@H](C)O2)[C@H](C)[C@@H](O[C@@H]2O[C@H](C)C[C@H](N(C)C)[C@H]2O)[C@](C)(O)C[C@@H](C)CN(C)[C@H](C)[C@@H](O)[C@]1(C)O [azithromycin]
- cells exhibiting abnormal phospholipid accumulation [2]: ~100%
